Drawing on patent publication US8445689B2, “Pesticides” (Dow AgroSciences, LLC., priority 2008, dated 2013), this text covers melting point and pest or weed control for 46 molecules.

Each structure is given as a SMILES string.

System in one data set: not given
Assay: not given
Settings: not given
Broadly, the melting point is the temperature of the solid-liquid transition. Regarding `CS(=O)(=NC(=O)Nc1ccc(C(F)(F)F)cc1)c1ccc(Cl)cc1` (stereo not shown) [Compound 1, N-[(4-chlorophenyl)(methyl)oxido-λ^4-sulfanylidene]-N′-[4-(trifluoromethyl)phenyl]urea], the melting point is 131 to 134 °C.

A further data set has as its system Green Peach Aphid (Myzus persicae). In words: Insecticidal test for green peach aphid in foliar spray assay on cabbage. It is filed as in vivo. Conditions: 72 h, 200 ppm foliar spray on cabbage seedlings, graded after 3 d, corrected % control (Abbott), read-out: Rating against green peach aphid on cabbage (foliar spray). As to the method:
Compounds 1-67 were tested against green peach aphid using procedures described hereinafter.
Insecticidal Test for Green Peach Aphid (Myzus persicae) in Foliar Spray Assay
Cabbage seedlings grown in 3-inch pots, with 2-3 small (3-5 cm) true leaves, were used as test substrate. The seedlings were infested with 20-50 green peach aphids (wingless adult and nymph) 1-2 d prior to chemical application. Four seedlings were used for each treatment. Compounds (2 mg) were dissolved in 2 mL of acetone-methanol (1:1) solvent, forming stock solutions of 1000 ppm. The stock solutions were diluted 5× with 0.025% Tween 20 in H2O to obtain a solution at 200 ppm. A hand-held Devilbiss aspirator sprayer was used for spraying a solution to both sides of cabbage leaves until runoff. Reference plants (solvent check) were sprayed with the diluent only. Treated plants were held in a holding room for 3 d at approximately 23° C. and 40% RH prior to grading. Evaluation was conducted by counting the number of live aphids per plant under a microscope. Insecticidal activity was measured by using Abbott's correction formula: Corrected % Control=100*(X−Y)/X • where X=No. of live aphids on solvent check plants • Y=No. of live aphids on treated plants
Turning to `CCO/N=C(\N)N=S(C)(=O)C(C)c1ccc(C(F)(F)F)nc1` (stereo not shown) [Compound 49], the pest or weed control at 200 ppm lay within 80 to 100%.

Turning to `CCNC(=S)N=S(C)(=O)C(C)c1ccc(C(F)(F)F)nc1` (stereo not shown) [Compound 6], the pest or weed control at 200 ppm lay within 80 to 100%.

Turning to `CS(=O)(=N/C(N)=N/O)C(C/C=C/Cl)c1ccc(Cl)nc1` (stereo not shown) [Compound 41, N-[[(3E)-4-Chloro-1-(6-chloropyridin-3-yl)but-3-enyl](methyl)oxido-λ^4-sulfanylidene]-N″-hydroxyguanidine], the pest or weed control at 200 ppm is < 80%.

Turning to `COCCO/N=C(\N)N=S(C)(=O)C(C)c1ccc(C(F)(F)F)nc1` (stereo not shown) [Compound 60], the pest or weed control at 200 ppm lay in the range of 80 to 100%.

On to `CC(c1ccc(C(F)(F)F)nc1)S(C)(=O)=NC(=S)N1CCCC1` (stereo not shown) [Compound 25], for which the pest or weed control at 200 ppm lay in the range of 80 to 100%.

Turning to `COc1ccc(CO/N=C(\N)N=S(C)(=O)C(C)c2ccc(C(F)(F)F)nc2)cc1` (stereo not shown) [Compound 47], the pest or weed control at 200 ppm lay within 80 to 100%.

`CNC(=S)N=S(C)(=O)C(C)c1ccc(C(F)(F)F)nc1` (stereo not shown) [Compound 13]: the pest or weed control at 200 ppm was in the range of 80 to 100%.

Take `CC(C)O/N=C(\N)N=S(C)(=O)C(C)c1ccc(C(F)(F)F)nc1` (stereo not shown) [Compound 50]: the pest or weed control at 200 ppm fell in the range of 80 to 100%.

Regarding `CC(C)O/N=C(\N)N=S(C)(=O)C(C/C=C/Cl)c1ccc(Cl)nc1` (stereo not shown) [Compound 64, N-[[(3E)-4-Chloro-1-(6-chloropyridin-3-yl)but-3-enyl](methyl)oxido-λ^4-sulfanylidene]-N″-isopropoxyguanidine], the pest or weed control at 200 ppm was < 80%.

As to `CO/N=C(\N)N=S(C)(=O)C(C)c1ccc(C(F)(F)F)nc1` (stereo not shown) [Compound 48], the pest or weed control at 200 ppm lay in the range of 80 to 100%.

In the case of `COc1ccc(C(=O)NC(=S)N=S(C)(=O)C(C)c2ccc(C(F)(F)F)nc2)cc1` (stereo not shown) [Compound 17], the pest or weed control at 200 ppm lay in the range of 80 to 100%.

Turning to `CC(c1ccc(C(F)(F)F)nc1)S(C)(=O)=NC(=O)C(F)F` (stereo not shown) [Compound 66, 2,2-difluoro-N-(methyl(oxido){1-[6-(trifluoromethyl)pyridin-3-yl]ethyl}-λ^4-sulfanylidene)acetamide], the pest or weed control at 200 ppm is 80 to 100%.

For the molecule `CC(c1ccc(C(F)(F)F)nc1)S(C)(=O)=NC(=S)N(C)C` (stereo not shown) [Compound 23, N,N-dimethyl-N′-(methyl(oxido){1-[6-(trifluoromethyl)pyridin-3-yl]ethyl}-λ^4-sulfanylidene)thiourea], the pest or weed control at 200 ppm lay within 80 to 100%.

Take `CCOC(=O)CNC(=S)N=S(C)(=O)C(C)c1ccc(C(F)(F)F)nc1` (stereo not shown) [Compound 12]: the pest or weed control at 200 ppm fell in the range of 80 to 100%.

`CC(c1ccc(C(F)(F)F)nc1)S(C)(=O)=N/C(N)=N/OCCCCF` (stereo not shown) [Compound 55]: the pest or weed control at 200 ppm fell in the range of 80 to 100%.

As to `COC(=O)C(C)NC(=S)N=S(C)(=O)C(C)c1ccc(C(F)(F)F)nc1` (stereo not shown) [Compound 10], the pest or weed control at 200 ppm lay within 80 to 100%.

On to `CC(c1ccc(C(F)(F)F)nc1)S(C)(=O)=N/C(N)=N/OCCCF` (stereo not shown) [Compound 54], for which the pest or weed control at 200 ppm was in the range of 80 to 100%.

Turning to `CC(c1ccc(C(F)(F)F)nc1)S(C)(=O)=N/C(N)=N/OCCC=C(F)F` (stereo not shown) [Compound 56], the pest or weed control at 200 ppm fell in the range of 80 to 100%.

Take `CC(c1ccc(C(F)(F)F)nc1)S(C)(=O)=N/C(N)=N/OCc1ccc(Cl)cc1` (stereo not shown) [Compound 46, N′-[(4-chlorobenzyl)oxy]-N-(methyl(oxido) {1-[6-(trifluoromethyl)pyridin-3-yl]ethyl}-λ^4-sulfanylidene)guanidine]: the pest or weed control at 200 ppm lay in the range of 80 to 100%.

As to `CC(c1ccc(C(F)(F)F)nc1)S(C)(=O)=NC(=S)NC(=O)c1ccco1` (stereo not shown) [Compound 18], the pest or weed control at 200 ppm fell in the range of 80 to 100%.

In the case of `CS(=O)(Cc1ccc(C(F)(F)F)nc1)=NC(N)=S` (stereo not shown) [Compound 29, N-(methyl(oxido){[6-(trifluoromethyl)pyridin-3-yl]methyl}-λ^4-sulfanylidene)thiourea], the pest or weed control at 200 ppm was 80 to 100%.

Turning to `CC(c1ccc(C(F)(F)F)nc1)S(C)(=O)=NC(=O)NC(=O)CCl` (stereo not shown) [Compound 3, N-(chloroacetyl)-N′-(methyl(oxido){1-[6-(trifluoromethyl)pyridin-3-yl]ethyl}-λ^4-sulfanylidene)urea], the pest or weed control at 200 ppm lay within 80 to 100%.

`CC(=O)O/N=C(\N)N=S(C)(=O)C(C)c1ccc(C(F)(F)F)nc1` (stereo not shown) [Compound 44, N″-(acetyloxy)-N-(methyl(oxido){1-[6-(trifluoromethyl)pyridin-3-yl]ethyl}-λ^4-sulfanylidene)guanidine]: the pest or weed control at 200 ppm lay in the range of 80 to 100%.

In the case of `CN/C(N=S(C)(=O)C(C)c1ccc(C(F)(F)F)nc1)=N\OC` (stereo not shown) [Compound 63, N″-methoxy-N-methyl-N′-(methyl(oxido){1-[6-(trifluoromethyl)pyridin-3-yl]ethyl}-λ^4-sulfanylidene)guanidine], the pest or weed control at 200 ppm was in the range of 80 to 100%.

Turning to `CC(c1ccc(C(F)(F)F)nc1)S(C)(=O)=NC(=S)NCc1ccco1` (stereo not shown) [Compound 8], the pest or weed control at 200 ppm was 80 to 100%.

For `CC(c1ccc(C(F)(F)F)nc1)S(C)(=O)=NC(=N)N` (stereo not shown) [Compound 45, N-(methyl(oxido){1-[6-(trifluoromethyl)pyridin-3-yl]ethyl}-λ^4-sulfanylidene)guanidine], the pest or weed control at 200 ppm is < 80%.

Take `CC(c1ccc(C(F)(F)F)nc1)S(C)(=O)=N/C(N)=N/OCC1CC1(F)F` (stereo not shown) [Compound 52]: the pest or weed control at 200 ppm lay within 80 to 100%.

As for `CS(=O)(=N/C(N)=N/O)C(CC1CC1)c1ccc(Cl)nc1` (stereo not shown) [Compound 40, N-[[1-(6-chloropyridin-3-yl)-2-cyclopropylethyl](methyl)oxido-λ^4-sulfanylidene]-N″-hydroxyguanidine], the pest or weed control at 200 ppm is < 80%.

For the molecule `CC(c1ccc(C(F)(F)F)nc1)S(C)(=O)=NC(=S)N1CCOCC1` (stereo not shown) [Compound 27], the pest or weed control at 200 ppm fell in the range of 80 to 100%.

`CC(c1ccc(C(F)(F)F)nc1)S(C)(=O)=NC(=S)Nc1cccnc1` (stereo not shown) [Compound 4, N-(methyl(oxido){1-[6-(trifluoromethyl)pyridin-3-yl]ethyl}-λ^4-sulfanylidene)-N′-pyridin-3-ylthiourea]: the pest or weed control at 200 ppm was < 80%.

Take `CS(=O)(=N/C(N)=N/O)C(CC1CC1)c1ccc(C(F)(F)F)nc1` (stereo not shown) [Compound 43, N-[{2-cyclopropyl-1-[6-(trifluoromethyl)pyridin-3-yl]ethyl}(methyl)oxido-λ^4-sulfanylidene]-N″-hydroxyguanidine]: the pest or weed control at 200 ppm was 80 to 100%.

Regarding `CC(c1ccc(C(F)(F)F)nc1)S(C)(=O)=N/C(=N/OCc1ccc(Cl)cc1)NCc1ccc(Cl)cc1` (stereo not shown) [Compound 57], the pest or weed control at 200 ppm is < 80%.

As for `CCN(CC)C(=S)N=S(C)(=O)C(C)c1ccc(C(F)(F)F)nc1` (stereo not shown) [Compound 24], the pest or weed control at 200 ppm was 80 to 100%.

Turning to `CC(c1ccc(C(F)(F)F)nc1)S(C)(=O)=N/C(N)=N/OCC1CO1` (stereo not shown) [Compound 61], the pest or weed control at 200 ppm is 80 to 100%.

For the molecule `CC(c1ccc(C(F)(F)F)nc1)S(C)(=O)=NC(=S)NCCN1CCOCC1` (stereo not shown) [Compound 11], the pest or weed control at 200 ppm lay in the range of 80 to 100%.

In the case of `CC(c1ccc(C(F)(F)F)nc1)S(C)(=O)=N/C(N)=N/OCC1CC1` (stereo not shown) [Compound 51], the pest or weed control at 200 ppm lay in the range of 80 to 100%.

Regarding `CC(c1ccc(C(F)(F)F)nc1)S(C)(=O)=N/C(N)=N/OCCF` (stereo not shown) [Compound 59], the pest or weed control at 200 ppm fell in the range of 80 to 100%.

`CC(c1ccc(C(F)(F)F)nc1)S(C)(=O)=NC(=O)C(C)(C)C` (stereo not shown) [Compound 67, 2,2-dimethyl-N-(methyl(oxido){1-[6-(trifluoromethyl)pyridin-3-yl]ethyl}-λ^4-sulfanylidene)propanamide]: the pest or weed control at 200 ppm was < 80%.

For the molecule `CS(=O)(Cc1ccc(C(F)(F)F)nc1)=N/C(N)=N/O` (stereo not shown) [Compound 42, N′-hydroxy-N-(methyl(oxido){[6-(trifluoromethyl)pyridin-3-yl]methyl}-λ^4-sulfanylidene)guanidine], the pest or weed control at 200 ppm was in the range of 80 to 100%.

Regarding `CC(c1ccc(C(F)(F)F)nc1)S(C)(=O)=NC(=S)N1CCCCC1` (stereo not shown) [Compound 26], the pest or weed control at 200 ppm lay within 80 to 100%.

For the molecule `C=CCO/N=C(\N)N=S(C)(=O)C(C)c1ccc(C(F)(F)F)nc1` (stereo not shown) [Compound 53], the pest or weed control at 200 ppm lay within 80 to 100%.

As to `COc1ccc(CN/C(N=S(C)(=O)C(C)c2ccc(C(F)(F)F)nc2)=N\OCc2ccc(OC)cc2)cc1` (stereo not shown) [Compound 58], the pest or weed control at 200 ppm lay in the range of 80 to 100%.

For `CC(c1ccc(C(F)(F)F)nc1)S(C)(=O)=NC(=S)NC(=O)c1ccc(Cl)cc1` (stereo not shown) [Compound 16], the pest or weed control at 200 ppm was in the range of 80 to 100%.

The same data set, now with this note: foliar, 72 h, read-out: Rating against green peach aphid on cabbage (foliar spray).
For `CCOC(=O)NC(=S)N=S(C)(=O)C(C)c1ccc(C(F)(F)F)nc1` (stereo not shown) [Compound 19], the pest or weed control at 200 ppm was in the range of 80 to 100%.

Consider `Cc1ccc(C(C)S(C)(=O)=NC(=S)NC(=O)OCC2c3ccccc3-c3ccccc32)cn1` (stereo not shown) [Compound 32, 9H-fluoren-9-ylmethyl({methyl[1-(6-methylpyridin-3-yl)ethyl]oxido-λ^4-sulfanylidene}amino)carbonothioylcarbamate], for which the pest or weed control at 200 ppm is < 80%.
